The structures appear in SMILES notation. Calls of active or inactive are those of the source. No cut-off for these calls is given here.

For series [1], the system named is Rattus norvegicus. The series can be described thus: Antialzhemeric activity in icv dosed Wistar rat model of scopolamine-induced cognition deficit assessed as effect on distance moved dosed 60 mins prior to training trial by Morris water maze test. The class given is functional, organism-based.
The target of series [2] is Nitric oxide synthase 1 (Rattus norvegicus, UniProt P29476).
Description: Inhibition of nNOS in Wistar rat cortical homogenates incubated for 30 mins
The subject of series [3] is Rattus norvegicus. The series can be described thus: Antialzhemeric activity in Wistar rat model of scopolamine-induced cognition deficit assessed as effect on distance moved at 100 nM, icv dosed 60 mins prior to training trial by Morris water maze test. It counts as functional, organism-based.
The nature of series [4]: Toxicity in Wistar rat assessed as effect on time spent in the target sector at 100 nM, icv by Morris water maze assay. Conditions: in vivo, icv_or_intrathecal, 0.1 µM.
Series [5] relates to Rattus norvegicus. As to the kind of experiment: Antialzhemeric activity in icv dosed Wistar rat model of scopolamine-induced cognition deficit assessed as effect on time in target sector dosed 60 mins prior to training trial by Morris water maze test. The class given is functional, organism-based.
Series [6] has as its system Rattus norvegicus. The series can be described thus: Antialzhemeric activity in icv dosed Wistar rat model of scopolamine-induced cognition deficit assessed as effect on average distance from platform dosed 60 mins prior to training trial by Morris water maze test. It counts as functional, organism-based.
The test system of series [7] is Rattus norvegicus. As to the kind of experiment: Antialzhemeric activity in Wistar rat model of scopolamine-induced cognition deficit assessed as effect on average distance from platform at 100 nM, icv dosed 60 mins prior to training trial by Morris water maze test. The class given is functional, organism-based.
For series [8] the following is noted: pampa, pH 7.4, 100 µM.
Description: Effective permeability of the compound in PBS buffer at pH 7.4 at 100 uM after 3 to 6 hrs by PAMPA
In series [9] the test system is Rattus norvegicus. As to the kind of experiment: Antialzhemeric activity in Wistar rat model of scopolamine-induced cognition deficit assessed as effect on escape latency at 100 nM, icv dosed 60 mins prior to training trial by Morris water maze test. The class given is functional, organism-based.
Series [10] is described as follows: Toxicity in Wistar rat assessed as induction of persistent oculonasal discharge at 70 mg/kg, ip measured during first 2 hrs then periodically for 48 hrs. The class given is organism-based. To be noted: in vivo.
Series [11] relates to Rattus norvegicus. As to the kind of experiment: Antialzhemeric activity in Wistar rat model of scopolamine-induced cognition deficit assessed as effect on average distance from platform at 10 nM, icv dosed 60 mins prior to training trial by Morris water maze test. It counts as functional, organism-based.
The target of series [12] is Acetylcholinesterase (Electrophorus electricus, UniProt O42275). The series can be described thus: Displacement of propidium iodide from peripheral binding site of electric eel AChE assessed as dissociation constant at 8 to 56 uM by spectrofluorometry based Taylor and Lappi method.
The nature of series [13]: Toxicity in Wistar rat assessed as effect on escape latency at 100 nM, icv by Morris water maze assay. To be noted: in vivo, icv_or_intrathecal, 0.1 µM.
The subject of series [14] is Rattus norvegicus. As to the kind of experiment: Antialzhemeric activity in icv dosed Wistar rat model of scopolamine-induced cognition deficit assessed as effect on escape latency dosed 60 mins prior to training trial by Morris water maze test. It counts as functional, organism-based.
Series [15] is described as follows: Toxicity in Wistar rat assessed as change in body weight weight at 70 mg/kg, ip after 24 and 48 hrs. Conditions: in vivo. It counts as organism-based.
The nature of series [16]: Toxicity in Wistar rat assessed as induction of intermittent tremors and prostration at 70 mg/kg, ip measured during first 2 hrs then periodically for 48 hrs. It counts as organism-based. Conditions: in vivo.
For series [17], the system named is Rattus norvegicus. As to the kind of experiment: Antialzhemeric activity in Wistar rat model of scopolamine-induced cognition deficit assessed as effect on time in target sector at 100 nM, icv dosed 60 mins prior to training trial by Morris water maze test. The class given is functional, organism-based.
Series [18] is described as follows: Toxicity in Wistar rat assessed as effect on distance moved at 100 nM, icv by Morris water maze assay. To be noted: in vivo, icv_or_intrathecal, 0.1 µM.
In series [19] the test system is Rattus norvegicus. The series can be described thus: Antialzhemeric activity in Wistar rat model of scopolamine-induced cognition deficit assessed as effect on time in target sector at 10 nM, icv dosed 60 mins prior to training trial by Morris water maze test. The class given is functional, organism-based.
Series [20] can be described thus: Toxicity in Wistar rat assessed as induction of diminishing spontaneously and prostration at 70 mg/kg, ip measured during first 2 hrs. The class given is organism-based. To be noted: in vivo.
Series [21] deals with Rattus norvegicus. The series can be described thus: Antialzhemeric activity in Wistar rat model of scopolamine-induced cognition deficit assessed as effect on distance moved at 10 nM, icv dosed 60 mins prior to training trial by Morris water maze test. It counts as functional, organism-based.
The nature of series [22]: Toxicity in Wistar rat assessed as induction of partial piloerection at 70 mg/kg, ip measured during first 2 hrs then periodically for 48 hrs. The class given is organism-based. To be noted: in vivo.
For series [23], the system named is HepG2. As to the kind of experiment: cells. To be noted: Homo sapiens, HepG2, 24 h.
Description: Cytotoxicity against human HepG2 cells assessed as reduction in cell viability incubated for 24 hrs by MTT assay
Series [24] is described as follows: Toxicity in Wistar rat assessed as induction of intermittent abnormal breathing pattern at 70 mg/kg, ip measured during first 2 hrs then periodically for 48 hrs. It counts as organism-based. To be noted: in vivo.
Series [25] in a line: Toxicity in Wistar rat assessed as induction of salivation at 100 nM, icv by Morris water maze assay. To be noted: in vivo, icv_or_intrathecal, 0.1 µM.
Series [26] is described as follows: Toxicity in Wistar rat assessed as induction of tremors at 100 nM, icv by Morris water maze assay. To be noted: in vivo, icv_or_intrathecal, 0.1 µM.
For series [27], the target named is Acetylcholinesterase (Homo sapiens, UniProt P22303).
Description: Inhibition of human recombinant AChE using acetylthiocholine iodide as substrate preincubated for 5 mins followed by substrate addition and measured over 2 mins by UV-Vis spectrophotometric analysis based Ellman's method
The subject of series [28] is Rattus norvegicus. As to the kind of experiment: Antialzhemeric activity in Wistar rat model of scopolamine-induced cognition deficit assessed as effect on escape latency at 10 nM, icv dosed 60 mins prior to training trial by Morris water maze test. It counts as functional, organism-based.
For series [29], the system named is CHO-K1. As to the kind of experiment: cells. Conditions: Cricetulus griseus, CHO-K1, 24 h.
Description: Cytotoxicity against CHOK1 cells assessed as reduction in cell viability incubated for 24 hrs by MTT assay
The target of series [30] is Cholinesterase (Homo sapiens, UniProt P06276).
Description: Inhibition of human recombinant BChE using butyrylthiocholine iodide as substrate preincubated for 5 mins followed by substrate addition and measured over 2 mins by UV-Vis spectrophotometric analysis based Ellman's method
Series [31] in a line: Toxicity in ip dosed Wistar rat assessed as maximum tolerated dose measured during first 2 hrs then periodically for 48 hrs. To be noted: in vivo. It counts as organism-based.
A short description of series [32]: Toxicity in Wistar rat assessed as effect on average distance from platform at 100 nM, icv by Morris water maze assay. Conditions: in vivo, icv_or_intrathecal, 0.1 µM.

Sequence of Cholinesterase (P06276 whole entry): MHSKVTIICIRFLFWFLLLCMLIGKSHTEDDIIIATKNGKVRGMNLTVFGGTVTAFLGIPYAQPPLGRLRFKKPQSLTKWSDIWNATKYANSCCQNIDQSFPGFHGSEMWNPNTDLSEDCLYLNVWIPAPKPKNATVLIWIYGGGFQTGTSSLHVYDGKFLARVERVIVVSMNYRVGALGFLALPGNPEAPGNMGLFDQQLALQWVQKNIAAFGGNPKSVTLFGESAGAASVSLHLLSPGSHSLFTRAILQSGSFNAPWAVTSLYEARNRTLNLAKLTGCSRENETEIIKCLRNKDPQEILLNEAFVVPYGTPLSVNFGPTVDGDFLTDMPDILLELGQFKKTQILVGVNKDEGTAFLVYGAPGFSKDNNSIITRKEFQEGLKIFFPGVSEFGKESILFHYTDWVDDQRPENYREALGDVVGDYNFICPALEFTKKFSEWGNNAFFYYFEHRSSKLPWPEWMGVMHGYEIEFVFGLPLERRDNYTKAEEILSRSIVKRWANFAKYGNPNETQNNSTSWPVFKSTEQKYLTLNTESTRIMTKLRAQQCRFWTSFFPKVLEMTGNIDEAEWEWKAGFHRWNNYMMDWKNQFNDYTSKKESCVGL
Sequence of Nitric oxide synthase 1 (P29476 whole entry, looked up): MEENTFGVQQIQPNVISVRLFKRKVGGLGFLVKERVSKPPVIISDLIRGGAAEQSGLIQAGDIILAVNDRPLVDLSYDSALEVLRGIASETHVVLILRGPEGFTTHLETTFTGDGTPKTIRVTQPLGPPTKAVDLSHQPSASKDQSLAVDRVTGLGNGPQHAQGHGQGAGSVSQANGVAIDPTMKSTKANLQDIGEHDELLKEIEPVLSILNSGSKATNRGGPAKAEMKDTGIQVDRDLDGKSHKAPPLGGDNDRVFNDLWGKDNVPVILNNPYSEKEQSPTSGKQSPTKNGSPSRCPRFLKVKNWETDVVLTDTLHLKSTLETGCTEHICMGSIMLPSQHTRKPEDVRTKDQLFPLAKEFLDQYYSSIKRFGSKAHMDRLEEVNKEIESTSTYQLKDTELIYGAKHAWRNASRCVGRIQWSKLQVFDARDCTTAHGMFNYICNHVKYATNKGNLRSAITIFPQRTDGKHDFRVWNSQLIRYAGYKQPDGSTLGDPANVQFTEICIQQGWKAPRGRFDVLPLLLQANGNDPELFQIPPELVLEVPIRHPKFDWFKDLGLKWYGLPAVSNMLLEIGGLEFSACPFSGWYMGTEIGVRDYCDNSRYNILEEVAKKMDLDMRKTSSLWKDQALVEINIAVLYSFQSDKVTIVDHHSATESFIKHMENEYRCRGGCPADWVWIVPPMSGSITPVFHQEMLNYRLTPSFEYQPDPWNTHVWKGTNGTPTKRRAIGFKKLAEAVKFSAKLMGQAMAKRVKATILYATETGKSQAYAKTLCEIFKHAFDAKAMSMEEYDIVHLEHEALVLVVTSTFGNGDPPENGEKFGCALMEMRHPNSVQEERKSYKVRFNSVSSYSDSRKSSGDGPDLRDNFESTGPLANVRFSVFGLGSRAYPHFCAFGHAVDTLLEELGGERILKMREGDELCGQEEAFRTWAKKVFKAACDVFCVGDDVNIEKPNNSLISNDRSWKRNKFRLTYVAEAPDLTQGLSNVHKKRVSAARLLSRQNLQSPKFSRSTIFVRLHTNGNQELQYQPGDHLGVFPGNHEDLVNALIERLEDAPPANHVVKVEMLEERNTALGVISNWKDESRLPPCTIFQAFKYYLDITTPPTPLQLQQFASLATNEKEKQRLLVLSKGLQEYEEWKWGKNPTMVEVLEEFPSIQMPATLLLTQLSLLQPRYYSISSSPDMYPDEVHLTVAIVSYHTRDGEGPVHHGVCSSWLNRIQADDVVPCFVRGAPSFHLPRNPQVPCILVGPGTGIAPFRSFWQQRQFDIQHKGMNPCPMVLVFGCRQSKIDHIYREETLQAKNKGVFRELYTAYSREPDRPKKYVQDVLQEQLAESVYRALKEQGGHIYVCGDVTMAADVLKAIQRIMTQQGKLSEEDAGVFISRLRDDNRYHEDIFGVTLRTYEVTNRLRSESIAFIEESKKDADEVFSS
Sequence of Acetylcholinesterase (Homo sapiens, UniProt P22303) (P22303 whole entry): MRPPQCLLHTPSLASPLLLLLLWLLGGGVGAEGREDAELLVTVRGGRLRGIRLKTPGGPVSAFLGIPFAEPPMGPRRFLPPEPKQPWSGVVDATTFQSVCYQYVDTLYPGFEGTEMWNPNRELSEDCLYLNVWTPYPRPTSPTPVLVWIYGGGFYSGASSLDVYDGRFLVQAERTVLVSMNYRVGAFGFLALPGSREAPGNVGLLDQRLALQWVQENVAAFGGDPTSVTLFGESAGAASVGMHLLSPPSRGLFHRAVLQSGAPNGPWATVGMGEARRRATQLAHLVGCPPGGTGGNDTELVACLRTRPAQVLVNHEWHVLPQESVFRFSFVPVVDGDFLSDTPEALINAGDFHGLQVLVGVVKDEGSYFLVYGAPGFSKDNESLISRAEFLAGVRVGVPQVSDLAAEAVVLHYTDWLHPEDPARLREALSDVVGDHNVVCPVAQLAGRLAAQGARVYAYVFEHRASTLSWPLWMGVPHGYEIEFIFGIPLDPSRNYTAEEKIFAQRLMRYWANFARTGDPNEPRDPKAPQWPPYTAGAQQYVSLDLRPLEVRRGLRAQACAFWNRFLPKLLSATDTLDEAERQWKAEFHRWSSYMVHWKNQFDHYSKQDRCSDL
Sequence of Acetylcholinesterase (Electrophorus electricus, UniProt O42275) (O42275 whole entry): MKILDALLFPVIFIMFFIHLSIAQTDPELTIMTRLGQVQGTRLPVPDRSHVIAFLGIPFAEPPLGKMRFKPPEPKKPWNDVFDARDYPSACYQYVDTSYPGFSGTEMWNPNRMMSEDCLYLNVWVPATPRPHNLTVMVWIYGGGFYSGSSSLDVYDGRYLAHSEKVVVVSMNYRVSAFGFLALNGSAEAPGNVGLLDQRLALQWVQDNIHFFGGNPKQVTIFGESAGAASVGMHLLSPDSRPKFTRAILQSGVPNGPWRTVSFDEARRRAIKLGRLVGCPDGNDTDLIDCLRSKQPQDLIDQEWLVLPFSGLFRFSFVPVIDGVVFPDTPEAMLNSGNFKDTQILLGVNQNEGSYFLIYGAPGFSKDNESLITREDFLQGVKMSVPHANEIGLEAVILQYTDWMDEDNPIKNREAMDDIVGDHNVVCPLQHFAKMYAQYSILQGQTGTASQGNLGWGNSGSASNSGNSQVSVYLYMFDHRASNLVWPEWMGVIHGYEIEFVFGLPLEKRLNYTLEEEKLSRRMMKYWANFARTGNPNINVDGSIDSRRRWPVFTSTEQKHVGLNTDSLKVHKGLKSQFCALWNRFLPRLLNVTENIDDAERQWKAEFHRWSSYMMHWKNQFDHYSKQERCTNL

As usually defined, the IC50 is the concentration that gives 50% inhibition. Higher therefore signals a need for much substance. For orientation: Kd means a measure of binding affinity in units of concentration. In general, MTD refers to the highest dose tested that stayed within the study's limit of toxicity. For `Cl.Cl.N[C@@H](Cc1c[nH]c2ccccc12)C(=O)NCCCCCCNc1c2c(nc3cc(Cl)ccc13)CCCC2`, the Activity result in series [1] was “Dose-dependent effect”; in series [4], “Non-Toxic”; in series [5] it was “Dose-dependent effect”; in series [6] it was “Dose-dependent effect”; in series [10] it was “Toxic”; in [13], “Non-Toxic”. For the same compound, the Activity result in series [14] is “Dose-dependent effect”; in series [15], “Non-Toxic”; in series [16] it was “Toxic”; in [18] it was “Non-Toxic”; in series [20], “Toxic”; in series [22], “Toxic”. Further, the Activity result is “Toxic” in [24], “Non-Toxic” in series [25], “Non-Toxic” in [26] and “Non-Toxic” in series [32]. Also, the IC50 was found to be 26 µM in series [2]; 4.9 µM in series [23]; 0.0063 µM in [27]; 21 µM in series [29]; 0.0091 µM in series [30]. Further, the result in series [3], in [7], in [9], in [11], in [17] and in series [19] was Active. In addition, in [28], the result was Active. The permeability result in series [8] is recorded as “Permeable”. The Kd in [12] was 4.82 µM. Moreover, the result in series [21] was inactive. Further, the MTD at 48 h in [31] was 70 mg/kg.

On to `Cl.Cl.N[C@H](Cc1c[nH]c2ccccc12)C(=O)NCCCCCCNc1c2c(nc3cc(Cl)ccc13)CCCC2`, for which the IC50 in [2] was 26 µM; in series [23], 4.2 µM; in [27] it was 0.0069 µM; in series [29] it was 15 µM; in series [30] it was 0.14 µM. Also, the permeability entry in [8] is “Permeable”.
